Data set [1] in a line: Water content of highly crystalline Form A (Karl Fisher titration). It is filed as physicochemical. As to the method:
Highly crystalline Fluvastatin sodium Form A can generally be prepared by equilibration of an aqueous suspension or solution of Fluvastatin sodium for several hours at temperatures from about 0 to 10° C. and subsequent drying by lyophilization. The process can be accelerated by additional seeding with crystals of Form A during the equilibration period. A characteristic X-ray powder diffraction pattern for highly crystalline Form A is depicted in FIG. 1. The crystallinity of this material is estimated by the powder diffraction spectrum to be more than 90%. The estimated water content is below 2%.
A 30 ml aqueous solution of 30° C. containing ca. 3 grams of Fluvastatin sodium was cooled to about 2° C. and was allowed to stand at this temperature for 6 hours. Subsequently, the off-white coloured suspension was frozen using a dry-ice bath and dried by lyophilization for 24 hours. […] From its X-ray powder diffraction pattern it was estimated that the crystallinity is more than 90%, see FIG. 1.

The conditions of data set [2]: compared with Form A or the amorphous form; from WO-A-97/49681 / U.S. Pat. No. 6,124,340; cited from earlier work.
The nature of data set [3]: Estimated water content of crystalline forms obtained by equilibration under defined relative humidity. It is filed as physicochemical. An excerpt:
Forms C, D, E and F can be prepared according to a process, wherein Fluvastatin sodium is exposed to an atmosphere having a defined relative humidity. […] As a rule the estimated water content can range from 3-6%. […] As a rule the estimated water content can range from 6-12%. […] As a rule the estimated water content can range from 15-22%. […] As a rule the estimated water content can range from 24-32%.

Take `CC(C)n1c(/C=C/[C@H](O)C[C@H](O)CC(=O)[O-])c(-c2ccc(F)cc2)c2ccccc21.[Na+]` (racemic) [Form A, (±)-7-(3-(4-fluorophenyl)-1-(1-methylethyl)-1H-indol-2-yl)-3,5-dihydroxy-6-heptenoic acid monosodium salt]: in data set [1] (Karl Fisher titration, Example 1, lyophilized 24 hours), the water content entry was “below 2%”. Besides, the estimated water content result in data set [1] (aqueous suspension or solution equilibrated at about 0 to 10° C., then lyophilization) is recorded as “below 2%”. As for `CC(C)n1c(/C=C/[C@H](O)C[C@H](O)CC(=O)[O-])c(-c2ccc(F)cc2)c2ccccc21.[Na+]` (racemic) [Form B, (±)-7-(3-(4-fluorophenyl)-1-(1-methylethyl)-1H-indol-2-yl)-3,5-dihydroxy-6-heptenoic acid monosodium salt], the hygroscopicity entry in data set [2] is given as “less hygroscopic than Form A or the amorphous form”.

Turning to `CC(C)n1c(/C=C/[C@H](O)C[C@H](O)CC(=O)[O-])c(-c2ccc(F)cc2)c2ccccc21.[Na+]` (racemic) [Form C, (±)-7-(3-(4-fluorophenyl)-1-(1-methylethyl)-1H-indol-2-yl)-3,5-dihydroxy-6-heptenoic acid monosodium salt], the estimated water content in data set [3] (equilibration under relative humidity from about 15 to 25% (for example 6 to 24 hours)) was 3-6%. In the case of `CC(C)n1c(/C=C/[C@H](O)C[C@H](O)CC(=O)[O-])c(-c2ccc(F)cc2)c2ccccc21.[Na+]` (racemic) [Form D, (±)-7-(3-(4-fluorophenyl)-1-(1-methylethyl)-1H-indol-2-yl)-3,5-dihydroxy-6-heptenoic acid monosodium salt], the estimated water content in data set [3] (equilibration under relative humidity from about 30 to 50% (for example 6 to 24 hours)) is 6-12%. Take `CC(C)n1c(/C=C/[C@H](O)C[C@H](O)CC(=O)[O-])c(-c2ccc(F)cc2)c2ccccc21.[Na+]` (racemic) [Form E, (±)-7-(3-(4-fluorophenyl)-1-(1-methylethyl)-1H-indol-2-yl)-3,5-dihydroxy-6-heptenoic acid monosodium salt]: the estimated water content in data set [3] (equilibration under relative humidity from about 55 to 75% (for example several days)) is reported as 15-22%. In the case of `CC(C)n1c(/C=C/[C@H](O)C[C@H](O)CC(=O)[O-])c(-c2ccc(F)cc2)c2ccccc21.[Na+]` (racemic) [Form F, (±)-7-(3-(4-fluorophenyl)-1-(1-methylethyl)-1H-indol-2-yl)-3,5-dihydroxy-6-heptenoic acid monosodium salt], the estimated water content in data set [3] (equilibration under relative humidity from about 80 to 90% (for example several days)) is 24-32%.

(Values after patent US6696479B2, “Crystalline forms” (Ciba Specialty Chemicals Corporation, priority 2001, dated 2004).)
